A value given as a limit tells only on which side of the number the result lay.

EC50 data for 38 compounds are collected here from patent publication US12006330B2, “Substituted macrocyclic compounds and related methods of treatment” (Alkermes, Inc., priority 2020, dated 2024).

The assay has as its target T1, human orexin-2 receptor (OX2R) (Homo sapiens, UniProt O43614).
T1 construct: expressed in transfected cells
T1 sequence (O43614 1-444): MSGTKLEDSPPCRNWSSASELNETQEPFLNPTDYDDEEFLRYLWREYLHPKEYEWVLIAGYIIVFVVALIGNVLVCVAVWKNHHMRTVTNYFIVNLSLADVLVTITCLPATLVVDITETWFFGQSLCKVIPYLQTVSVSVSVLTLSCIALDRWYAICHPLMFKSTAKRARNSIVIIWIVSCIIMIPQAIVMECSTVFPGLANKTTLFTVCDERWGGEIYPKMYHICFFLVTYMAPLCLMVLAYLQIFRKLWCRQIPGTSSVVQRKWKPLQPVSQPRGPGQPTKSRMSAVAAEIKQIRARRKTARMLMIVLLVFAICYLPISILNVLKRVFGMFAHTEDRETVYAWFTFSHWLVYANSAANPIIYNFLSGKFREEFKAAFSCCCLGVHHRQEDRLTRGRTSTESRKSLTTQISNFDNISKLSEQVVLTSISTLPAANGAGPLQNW
The assay can be described thus: Human OX2R IP1 assay. In kind it is cell-based. Particulars: T-Rex CHO cells stably overexpressing human OX2R; IP1 accumulation; 1 hr at 37 degrees C; mean EC50. As to the method:
T-Rex CHO cells stably overexpressing the human orexin-2 receptor (OX2R) were induced overnight with 1 μg/mL of doxycycline in a T225 flask. 24 hours post induction, cells were lifted with accutase and plated into a 384-well proxy plate at 30,000 cells/well. Cells were then treated with different test compounds in 1× stimulation buffer containing 10 mM Hepes, 1 mM CaCl2), 0.5 mM MgCl2, 4.2 mM KCl, 146 mM NaCl, 5.5 mM glucose, and 50 mM LiCl, pH 7.4, for 1 hr at 37 degrees C. Following incubation, the reaction was terminated by the addition of detection mix, which is composed of IP1-d2 and anti-IP1-cryptate diluted in lysis buffer as well as 1× stimulation buffer. The plates were allowed to incubate for 1 hour at room temperature and were then read in the EnVision® multimode plate reader, measuring inositol phosphate levels.
Cisbio IP1 is a cell-based functional assay quantifying the accumulation of inositol monophosphate (IP), a metabolite released as a result of orexin 2 receptor activation through the phospholipase C-Gq signaling pathway. This is a competitive immunoassay in which the IP1 produced by the cells upon receptor activation competes with the IP1 analog coupled to the d2 fluorophore (acceptor) for binding to an anti-IP1 monoclonal antibody labeled with Eu cryptate (donor). The measured HTRF-FRET based signal is inversely proportional to the IP1 concentration produced.
The EC50 values reported in Table 2 were obtained according to the human OX2R IP1 assay described above. Data are the mean EC50 values S.E.M. Reference Compound A is methyl (2R,3S)-3-((methylsulfonyl)amino)-2-(((cis-4-phenylcyclohexyl)oxy)methyl)-piperidine-1-carboxylate (Example 5 of PCT publication No. WO2017/135306). Reference Compound B is N-((2S,3S)-1-(2-hydroxy-2-methylpropanoyl)-2-((2,3′,5′-trifluorobiphenyl-3-yl)methyl)pyrrolidin-3-yl)methanesulfonamide (Example 483 of PCT publication No. WO2019/027058).
As usually defined, the EC50 is the concentration needed to bring the measured effect to its halfway point. A low value points to greater potency. In turn, `Cc1ncnc2c1[C@H]1CC[C@H](CC1)OC[C@H]1[C@@H](NS(=O)(=O)C3CC3)CCN1C(=O)CO2` (stereo in doubt) [Compound 83] registered an EC50 of 10 to 1000 nM.
`Cc1cccc2c1OCC(=O)N1CCC[C@H](NS(C)(=O)=O)[C@@H]1CO[C@H]1CC[C@@H]2CC1` (stereo in doubt) [Compound 37]: the EC50 was less than 10 nM.
Under `Cc1cccc2c1[C@H]1CC[C@H](CC1)OC[C@H]1[C@@H](NS(=O)(=O)C3CC3)CCCN1C(=O)CO2` (stereo in doubt) [Compound 4] stands less than 10 nM; under `CC(C)S(=O)(=O)N[C@H]1CCCN2C(=O)COc3ccc(Cl)cc3[C@H]3CC[C@H](CC3)OC[C@@H]12` (stereo in doubt) [Compound 26], less than 10 nM.
Under `Cc1cccc2c1[C@H]1CC[C@H](CC1)OC[C@H]1[C@@H](NS(=O)(=O)C(C)C)CCN1C(=O)CO2` (stereo in doubt) [Compound 79] stands less than 10 nM; under `CC(C)S(=O)(=O)N[C@H]1CCCN2CCOc3ncccc3[C@H]3CC[C@H](CC3)OC[C@@H]12` (stereo in doubt) [Compound 64], more than 1000 nM; under `O=C1COc2ccccc2[C@H]2CC[C@H](CC2)OC[C@H]2[C@@H](NS(=O)(=O)CC3CC3)CCCN12` (stereo in doubt) [Compound 48], less than 10 nM.
In the case of `O=C1COc2ccccc2[C@H]2CC[C@H](CC2)OC[C@H]2[C@@H](NS(=O)(=O)CCO)CCCN12` (stereo in doubt) [Compound 19], the EC50 is less than 10 nM.
The figure for `Cc1ccnc2c1[C@H]1CC[C@H](CC1)OC[C@H]1[C@@H](NS(=O)(=O)C3CC3)CCCN1C(=O)CO2` (stereo in doubt) [Compound 62] is less than 10 nM; for `Cc1ccc2c(c1)[C@H]1CC[C@H](CC1)OC[C@H]1[C@@H](NS(C)(=O)=O)CCCN1CCO2` (stereo in doubt) [Compound 54] it is 10 to 1000 nM.
Under `Cc1ccc2c(c1)[C@H]1CC[C@H](CC1)OC[C@H]1[C@@H](NS(=O)(=O)C(C)C)CCCN1C(=O)CO2` (stereo in doubt) [Compound 18] stands less than 10 nM.
The figure for `Cc1ccnc2c1[C@H]1CC[C@H](CC1)OC[C@H]1[C@@H](NS(=O)(=O)C(C)C)CCN1C(=O)CO2` (stereo in doubt) [Compound 93] is less than 10 nM; for `Cc1ccc2c(c1C)[C@H]1CC[C@H](CC1)OC[C@H]1[C@@H](NS(C)(=O)=O)CCCN1C(=O)CO2` (stereo in doubt) [Compound 78] it is less than 10 nM.
The compound `Cc1ccc2c(c1C)[C@H]1CC[C@H](CC1)OC[C@H]1[C@@H](NS(=O)(=O)C(C)C)CCCN1C(=O)CO2` (stereo in doubt) [Compound 76] displayed an EC50 of less than 10 nM.
Under `O=S(=O)(CC1CC1)N[C@H]1CCCN2CCOc3ccccc3[C@H]3CC[C@H](CC3)OC[C@@H]12` (stereo in doubt) [Compound 59] stands 10 to 1000 nM.
Under `CCS(=O)(=O)N[C@H]1CCCN2CCOc3ccccc3[C@H]3CC[C@H](CC3)OC[C@@H]12` (stereo in doubt) [Compound 53] stands more than 1000 nM.
The figure for `Cc1ncnc2c1[C@H]1CC[C@H](CC1)OC[C@H]1[C@@H](NS(=O)(=O)C3CC3)CCCN1C(=O)CO2` (stereo in doubt) [Compound 68] is less than 10 nM.
In turn, `CC(C)S(=O)(=O)N[C@H]1CCCN2C(=O)COc3ncccc3[C@H]3CC[C@H](CC3)OC[C@@H]12` (stereo in doubt) [Compound 15] returned an EC50 of less than 10 nM.
The compound `Cc1ccnc2c1[C@H]1CC[C@H](CC1)OC[C@H]1[C@@H](NS(=O)(=O)C3COC3)CCN1C(=O)CO2` (stereo in doubt) [Compound 109] displayed a half-maximal effective concentration (EC50) of less than 10 nM.
The figure for `O=C1COc2ccccc2[C@H]2CC[C@H](CC2)OC[C@H]2[C@@H](NS(=O)(=O)CC3CCC3)CCCN12` (stereo in doubt) [Compound 43] is 10 to 1000 nM.
Under `CS(=O)(=O)N[C@H]1CCCN2C(=O)COc3ccc(C#N)cc3[C@H]3CC[C@H](CC3)OC[C@@H]12` (stereo in doubt) [Compound 46] stands 10 to 1000 nM; under `Cc1ncnc2c1[C@H]1CC[C@H](CC1)OC[C@H]1[C@@H](NS(=O)(=O)C(C)C)CCCN1C(=O)CO2` (stereo in doubt) [Compound 69], less than 10 nM; under `O=C1COc2ccccc2[C@H]2CC[C@H](CC2)OC[C@H]2[C@@H](NS(=O)(=O)C3CCCC3)CCCN12` (stereo in doubt) [Compound 33], less than 10 nM.
Under `Cc1cccc2c1[C@H]1CC[C@H](CC1)OC[C@H]1[C@@H](NS(C)(=O)=O)CCCN1C(=O)CO2` (stereo in doubt) [Compound 2] stands less than 10 nM; under `Cc1c(Cl)ccc2c1[C@H]1CC[C@H](CC1)OC[C@H]1[C@@H](NS(C)(=O)=O)CCCN1C(=O)CO2` (stereo in doubt) [Compound 31], less than 10 nM; under `CC(C)S(=O)(=O)N[C@H]1CCN2C(=O)COc3ncccc3[C@H]3CC[C@H](CC3)OC[C@@H]12` (stereo in doubt) [Compound 101], less than 10 nM.
`Cc1c(Cl)ccc2c1[C@H]1CC[C@H](CC1)OC[C@H]1[C@@H](NS(=O)(=O)C(C)C)CCCN1C(=O)CO2` (stereo in doubt) [Compound 28] registered an EC50 of less than 10 nM.
For the compound `CC(C)S(=O)(=O)N[C@H]1CCCN2C(=O)COc3ncc(Cl)cc3[C@H]3CC[C@H](CC3)OC[C@@H]12` (stereo in doubt) [Compound 35], the EC50 was less than 10 nM.
Under `O=C1COc2ncccc2[C@H]2CC[C@H](CC2)OC[C@H]2[C@@H](NS(=O)(=O)C3CC3)CCN12` (stereo in doubt) [Compound 107] stands less than 10 nM.
The figure for `Cc1ccnc2c1[C@H]1CC[C@H](CC1)OC[C@H]1[C@@H](NS(=O)(=O)C3CC3)CCN1C(=O)CO2` (stereo in doubt) [Compound 92] is less than 10 nM.
Under `O=C1COc2ccccc2[C@H]2CC[C@H](CC2)OC[C@H]2[C@@H](NS(=O)(=O)C(F)(F)F)CCCN12` (stereo in doubt) [Compound 11] stands less than 10 nM; under `Cc1ccc2c(c1)OCCN1CCC[C@H](NS(C)(=O)=O)[C@@H]1CO[C@H]1CC[C@@H]2CC1` (stereo in doubt) [Compound 50], more than 1000 nM; under `O=C1COc2nnccc2[C@H]2CC[C@H](CC2)OC[C@H]2[C@@H](NS(=O)(=O)C3CC3)CCCN12` (stereo in doubt) [Compound 67], 10 to 1000 nM.
As for `Cc1ccc2c(c1)[C@H]1CC[C@H](CC1)OC[C@H]1[C@@H](NS(=O)(=O)C3CC3)CCCN1C(=O)CO2` (stereo in doubt) [Compound 13], the EC50 is less than 10 nM.
`Cc1ccc2c(c1)OCC(=O)N1CCC[C@H](NS(C)(=O)=O)[C@@H]1CO[C@H]1CC[C@@H]2CC1` (stereo in doubt) [Compound 40] displayed an EC50 of 10 to 1000 nM.
The figure for `Cc1cccc2c1OCCN1CCC[C@H](NS(C)(=O)=O)[C@@H]1CO[C@H]1CC[C@@H]2CC1` (stereo in doubt) [Compound 49] is more than 1000 nM.
The figure for `O=S(=O)(N[C@H]1CCCN2CCOc3ncccc3[C@H]3CC[C@H](CC3)OC[C@@H]12)C1CC1` (stereo in doubt) [Compound 63] is more than 1000 nM; for `O=C1COc2ccccc2[C@H]2CC[C@H](CC2)OC[C@H]2[C@@H](NS(=O)(=O)C(F)F)CCCN12` (stereo in doubt) [Compound 7] it is less than 10 nM.
